# According to patent publication US20240150377A1, “MODULATORS OF CYSTIC FIBROSIS TRANSMEMBRANE CONDUCTANCE REGULATOR” (VERTEX PHARMACEUTICALS INCORPORATED, priority 2020, published 2024):
# Target: T1, CFTR (Homo sapiens, UniProt P13569, DEL508-508)
# T1 construct: endogenous in cells; host or cells: primary human bronchial epithelial cells from CF subjects (F508del/MF-HBE), differentiated at air-liquid interface
# Experiment: HBE2 assay: Ussing chamber assay of CFTR-mediated short-circuit currents
# Format: cell-based
# Conditions: 3 μM corrector; F508del/MF-HBE cells; with 44 nM potentiator, 18-24 hours, 20% human serum
# Outline: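 Corrector activity read as CFTR-dependent ISC (μA/cm^2): peak forskolin current minus post-inhibitor steady state. Measured at 37 °C, voltage clamp at 0 mV, on F508del/MF-HBE epithelia grown >14 days air-liquid interface in Ussing chambers.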
# T1 sequence (P13569 with tags, fused parts or gaps DEL508-508): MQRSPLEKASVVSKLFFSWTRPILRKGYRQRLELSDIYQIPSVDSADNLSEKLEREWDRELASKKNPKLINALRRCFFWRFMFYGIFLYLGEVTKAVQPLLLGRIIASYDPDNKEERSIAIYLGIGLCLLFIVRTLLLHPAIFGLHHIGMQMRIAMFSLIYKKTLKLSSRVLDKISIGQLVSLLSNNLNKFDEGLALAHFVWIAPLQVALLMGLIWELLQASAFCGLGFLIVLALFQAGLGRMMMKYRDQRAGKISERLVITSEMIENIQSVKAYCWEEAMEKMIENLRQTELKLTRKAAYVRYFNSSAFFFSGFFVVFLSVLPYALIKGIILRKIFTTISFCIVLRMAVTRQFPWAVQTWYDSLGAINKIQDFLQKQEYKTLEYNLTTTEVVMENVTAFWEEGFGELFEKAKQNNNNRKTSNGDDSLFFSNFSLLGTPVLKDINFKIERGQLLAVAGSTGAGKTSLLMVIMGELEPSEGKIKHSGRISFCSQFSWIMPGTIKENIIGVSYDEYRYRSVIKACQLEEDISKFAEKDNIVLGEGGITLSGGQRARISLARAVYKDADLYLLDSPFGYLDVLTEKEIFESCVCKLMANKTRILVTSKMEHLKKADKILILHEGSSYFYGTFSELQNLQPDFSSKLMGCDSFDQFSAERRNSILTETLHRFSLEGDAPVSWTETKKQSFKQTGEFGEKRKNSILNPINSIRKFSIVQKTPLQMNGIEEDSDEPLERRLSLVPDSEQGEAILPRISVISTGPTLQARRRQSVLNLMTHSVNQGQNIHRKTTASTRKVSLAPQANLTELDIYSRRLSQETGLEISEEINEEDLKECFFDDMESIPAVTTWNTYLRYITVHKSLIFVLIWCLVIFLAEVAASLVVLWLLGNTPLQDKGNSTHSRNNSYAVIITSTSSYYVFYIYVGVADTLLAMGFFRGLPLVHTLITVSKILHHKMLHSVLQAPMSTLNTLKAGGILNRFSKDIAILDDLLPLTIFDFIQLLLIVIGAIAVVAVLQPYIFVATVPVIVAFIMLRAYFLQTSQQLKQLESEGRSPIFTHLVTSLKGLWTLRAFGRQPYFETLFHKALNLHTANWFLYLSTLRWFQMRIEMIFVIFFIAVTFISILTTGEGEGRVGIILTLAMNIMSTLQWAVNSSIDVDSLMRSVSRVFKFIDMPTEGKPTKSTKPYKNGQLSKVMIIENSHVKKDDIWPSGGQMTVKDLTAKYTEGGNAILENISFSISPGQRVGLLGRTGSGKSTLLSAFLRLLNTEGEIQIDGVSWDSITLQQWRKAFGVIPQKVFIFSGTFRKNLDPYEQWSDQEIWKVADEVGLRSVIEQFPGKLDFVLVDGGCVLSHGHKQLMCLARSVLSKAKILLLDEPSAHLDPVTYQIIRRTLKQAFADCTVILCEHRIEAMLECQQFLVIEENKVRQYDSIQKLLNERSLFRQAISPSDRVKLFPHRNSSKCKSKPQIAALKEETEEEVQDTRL
row,SMILES,HBE2 Activity at 3 μM (%)
1,Cc1cccc(C)c1-c1cc2nc(n1)NS(=O)(=O)c1cccc(c1)C(=O)N(Cc1cncc(N3CC[C@H]3C)n1)[C@H](CC1CC1)CO2 [Compound 1778],+++ (+++ is >60+)
2,CCC(CC)[C@@H]1COc2cc(-c3c(C)cccc3C)nc(n2)NS(=O)(=O)c2cccc(c2)C(=O)N1Cc1cncc(N(C)C2CCC2)n1 [Compound 1779],+++ (+++ is >60+)
3,CCN(CC1CC1)c1cncc(CN2C(=O)c3cccc(c3)S(=O)(=O)Nc3nc(cc(-c4c(C)cccc4C)n3)OC[C@H]2CC(C)(C)C)n1 [Compound 1780],+++ (+++ is >60+)
4,Cc1cccc(C)c1-c1cc2nc(n1)NS(=O)(=O)c1cccc(c1)C(=O)N(Cc1cncc(N3CCC[C@@H](C)[C@H]3C)n1)[C@H](CC(C)(C)C)CO2 [Compound 1783],+++ (+++ is >60+)
5,Cc1cccc(C)c1-c1cc2nc(n1)NS(=O)(=O)c1cccc(c1)C(=O)N(Cc1cncc(N(C)C3CC4CCC43)n1)[C@H](CC(C)(C)C)CO2 (stereo partly shown) [Compound 1784],+++ (+++ is >60+)
6,Cc1cccc(C)c1-c1cc2nc(n1)NS(=O)(=O)c1cccc(c1)C(=O)N(Cc1cncc(N(C)C3CCC3C)n1)[C@H](CC(C)(C)C)CO2 (stereo partly shown) [Compound 1785],+++ (+++ is >60+)
7,COC[C@@H]1CCN1c1cncc(CN2C(=O)c3cccc(c3)S(=O)(=O)Nc3nc(cc(-c4c(C)cccc4C)n3)OC[C@H]2CC2CC2)n1 [Compound 1786],+++ (+++ is >60+)
8,Cc1cccc(C)c1-c1cc2nc(n1)NS(=O)(=O)c1cccc(c1)C(=O)N(Cc1cncc(N3CCC[C@H]3C)n1)[C@H](CC1CC1)CO2 [Compound 1787],+++ (+++ is >60+)
9,Cc1cccc(C)c1-c1cc2nc(n1)NS(=O)(=O)c1cccc(c1)C(=O)N(Cc1cncc(N(C)C(C)C)n1)[C@H](CCC(C)(C)C)CO2 [Compound 1788],+++ (+++ is >60+)
10,Cc1cccc(C)c1-c1cc2nc(n1)NS(=O)(=O)c1cccc(c1)C(=O)N(Cc1cccc(N3CCC[C@H]3C)n1)[C@H](CCC(C)(C)C)CO2 [Compound 1789],+++ (+++ is >60+)
11,Cc1cccc(C)c1-c1cc2nc(n1)NS(=O)(=O)c1cccc(c1)C(=O)N(Cc1cccc(N(C)C(C)C)n1)[C@H](CCC(C)(C)C)CO2 [Compound 1790],+++ (+++ is >60+)
12,Cc1cccc(C)c1-c1cc2nc(n1)NS(=O)(=O)c1cccc(c1)C(=O)N(Cc1cncc(N(C)CC(C)C)n1)[C@H](CCC(C)(C)C)CO2 [Compound 1791],+++ (+++ is >60+)
13,Cc1cccc(C)c1-c1cc2nc(n1)NS(=O)(=O)c1cccc(c1)C(=O)N(Cc1cncc(N3CCCC[C@H]3C)n1)[C@H](CC1CC1)CO2 [Compound 1792],+++ (+++ is >60+)
14,Cc1cccc(C)c1-c1cc2nc(n1)NS(=O)(=O)c1cccc(c1)C(=O)N(Cc1cncc(N3CCCC4CCC43)n1)[C@H](CC1(C)CCC1)CO2 (stereo partly shown) [Compound 1793],+++ (+++ is >60+)
15,Cc1cccc(C)c1-c1cc2nc(n1)NS(=O)(=O)c1cccc(c1)C(=O)N(Cc1cncc(N3CCCC4CCC43)n1)[C@H](CC1(C)CCC1)CO2 (stereo partly shown) [Compound 1794],+++ (+++ is >60+)
16,Cc1cccc(C)c1-c1cc2nc(n1)NS(=O)(=O)c1cccc(c1)C(=O)N(Cc1cncc(N(C)CC(C)(C)C)n1)[C@H](CCC(C)C)CO2 [Compound 1795],+++ (+++ is >60+)
17,Cc1cccc(C)c1-c1cc2nc(n1)NS(=O)(=O)c1cccc(c1)C(=O)N(Cc1cncc(N(C)C3CC4(CC4)C3)n1)[C@H](CCC(C)C)CO2 [Compound 1796],+++ (+++ is >60+)
18,Cc1cccc(C)c1-c1cc2nc(n1)NS(=O)(=O)c1cccc(c1)C(=O)N(Cc1cncc(N3CC[C@H]3C(C)C)n1)[C@H](CCC(C)(C)C)CO2 [Compound 1797],+++ (+++ is >60+)
19,Cc1cccc(C)c1-c1cc2nc(n1)NS(=O)(=O)c1cccc(c1)C(=O)N(Cc1cncc(N3C[C@H]4CCCC[C@H]43)n1)[C@H](CC(C)(C)C)CO2 [Compound 1800],+++ (+++ is >60+)
20,Cc1cccc(C)c1-c1cc2nc(n1)NS(=O)(=O)c1cccc(c1)C(=O)N(Cc1cncc(N3CC[C@H]3C)n1)[C@H](CC(C)(C)F)CO2 [Compound 1801],+++ (+++ is >60+)
21,COC[C@@H]1CCN1c1cncc(CN2C(=O)c3cccc(c3)S(=O)(=O)Nc3nc(cc(-c4c(C)cccc4C)n3)OC[C@H]2CC(C)(C)F)n1 [Compound 1802],+++ (+++ is >60+)
22,Cc1cccc(C)c1-c1cc2nc(n1)NS(=O)(=O)c1cccc(c1)C(=O)N(Cc1cncc(N3CCC[C@H]3C)n1)[C@H](CC(C)(C)F)CO2 [Compound 1803],+++ (+++ is >60+)
23,Cc1cccc(C)c1-c1cc2nc(n1)NS(=O)(=O)c1cccc(c1)C(=O)N(Cc1cncc(N(C)C3CCC3)n1)[C@H](CC1CCCCC1)CO2 [Compound 1804],+++ (+++ is >60+)

row,SMILES,HBE2 Activity at 3 μM (%)
1,Cc1cccc(C)c1-c1cc2nc(n1)NS(=O)(=O)c1cccc(c1)C(=O)N(Cc1cncc(N3CCCC[C@H]3C)n1)[C@H](CC(C)(C)F)CO2 [Compound 1805],+++ (+++ is >60+)
2,Cc1cccc(C)c1-c1cc2nc(n1)NS(=O)(=O)c1cccc(c1)C(=O)N(Cc1cncc(N(C)C)n1)[C@H](CCC(C)(C)C)CO2 [Compound 1806],+++ (+++ is >60+)
3,CCN(C)c1cncc(CN2C(=O)c3cccc(c3)S(=O)(=O)Nc3nc(cc(-c4c(C)cccc4C)n3)OC[C@H]2CCC(C)(C)C)n1 [Compound 1807],+++ (+++ is >60+)
4,CCN(c1cncc(CN2C(=O)c3cccc(c3)S(=O)(=O)Nc3nc(cc(-c4c(C)cccc4C)n3)OC[C@H]2CCC(C)(C)C)n1)C1CCC1 [Compound 1808],+++ (+++ is >60+)
5,CCN(CC1CC1)c1cncc(CN2C(=O)c3cccc(c3)S(=O)(=O)Nc3nc(cc(-c4c(C)cccc4C)n3)OC[C@H]2CCC(C)(C)C)n1 [Compound 1809],+++ (+++ is >60+)
6,Cc1cccc(C)c1-c1cc2nc(n1)NS(=O)(=O)c1cccc(c1)C(=O)N(Cc1cncc(N(C)CC3CC3)n1)[C@H](CCC(C)(C)C)CO2 [Compound 1810],+++ (+++ is >60+)
7,CCN(CCOC)c1cncc(CN2C(=O)c3cccc(c3)S(=O)(=O)Nc3nc(cc(-c4c(C)cccc4C)n3)OC[C@H]2CCC(C)(C)C)n1 [Compound 1811],+++ (+++ is >60+)
8,COCCN(C)c1cncc(CN2C(=O)c3cccc(c3)S(=O)(=O)Nc3nc(cc(-c4c(C)cccc4C)n3)OC[C@H]2CCC(C)(C)C)n1 [Compound 1812],+++ (+++ is >60+)
9,Cc1cccc(C)c1-c1cc2nc(n1)NS(=O)(=O)c1cccc(c1)C(=O)N(Cc1cncc(N3CCC[C@H]3C3CC3)n1)[C@H](CCC(C)(C)C)CO2 [Compound 1813],+++ (+++ is >60+)
10,Cc1cccc(C)c1-c1cc2nc(n1)NS(=O)(=O)c1cccc(c1)C(=O)N(Cc1cncc(N3CCC[C@H]3C)n1)[C@H](CCC(C)(C)C)CO2 [Compound 1814],+++ (+++ is >60+)
11,Cc1cccc(C)c1-c1cc2nc(n1)NS(=O)(=O)c1cccc(c1)C(=O)N(Cc1cncc(N(C)C3CC(F)(F)C3)n1)[C@H](CCC(C)(C)C)CO2 [Compound 1815],+++ (+++ is >60+)
12,CC[C@@H]1CCCN1c1cncc(CN2C(=O)c3cccc(c3)S(=O)(=O)Nc3nc(cc(-c4c(C)cccc4C)n3)OC[C@H]2CCC(C)(C)C)n1 [Compound 1816],+++ (+++ is >60+)
13,Cc1cccc(C)c1-c1cc2nc(n1)NS(=O)(=O)c1cccc(c1)C(=O)N(Cc1cncc(N(C)C3CC4(CC4)C3)n1)[C@H](CCC(C)(C)C)CO2 [Compound 1817],+++ (+++ is >60+)
14,Cc1cccc(C)c1-c1cc2nc(n1)NS(=O)(=O)c1cccc(c1)C(=O)N(Cc1cncc(N(C)CC(C)(C)F)n1)[C@H](CCC(C)(C)C)CO2 [Compound 1818],+++ (+++ is >60+)
15,Cc1cccc(C)c1-c1cc2nc(n1)NS(=O)(=O)c1cccc(c1)C(=O)N(Cc1cnc3cc(C(C)C)n(C)c3n1)[C@H](CC(C)(C)F)CO2 [Compound 1819],+++ (+++ is >60+)
16,Cc1cccc(C)c1-c1cc2nc(n1)NS(=O)(=O)c1cccc(c1)C(=O)N(Cc1cnc3cc(C(C)C)n(C)c3n1)[C@H](CC1CC1)CO2 [Compound 1820],+++ (+++ is >60+)
17,Cc1cccc(C)c1-c1cc2nc(n1)NS(=O)(=O)c1cccc(c1)C(=O)N(Cc1cncc(N(C)CC(C)C)n1)[C@H](CC1CCCCC1)CO2 [Compound 1821],+++ (+++ is >60+)
18,Cc1cccc(C)c1-c1cc2nc(n1)NS(=O)(=O)c1cccc(c1)C(=O)N(Cc1cncc(N3CCCC[C@H]3C)n1)[C@H](CC1CCCCC1)CO2 [Compound 1822],+++ (+++ is >60+)
19,Cc1cccc(C)c1-c1cc2nc(n1)NS(=O)(=O)c1cccc(c1)C(=O)N(Cc1cncc(N3CC[C@H]3C)n1)[C@H](CC1CCCCC1)CO2 [Compound 1823],+++ (+++ is >60+)
20,Cc1cccc(C)c1-c1cc2nc(n1)NS(=O)(=O)c1cccc(c1)C(=O)N(Cc1cncc(N3CCCC3C(C)C)n1)[C@H](CC1CCCCC1)CO2 (stereo partly shown) [Compound 1824],+++ (+++ is >60+)
21,Cc1cccc(C)c1-c1cc2nc(n1)NS(=O)(=O)c1cccc(c1)C(=O)N(Cc1cncc(N(C)C(C)C)n1)[C@H](CC1CCCCC1)CO2 [Compound 1825],+++ (+++ is >60+)
22,Cc1cccc(C)c1-c1cc2nc(n1)NS(=O)(=O)c1cccc(c1)C(=O)N(Cc1cnc3cc(C(C)C)n(C)c3n1)[C@H](CCC(C)(C)C)CO2 [Compound 1826],+++ (+++ is >60+)
23,Cc1cccc(C)c1-c1cc2nc(n1)NS(=O)(=O)c1cccc(c1)C(=O)N(Cc1cnc3cc(C(C)C)n(C)c3n1)[C@H](CCC(C)C)CO2 [Compound 1827],+++ (+++ is >60+)
